Values joined by “and” are separate entries in the source; they are usually repeats but may differ in a detail not shown here. Equal values may be shown once.
Assays:
[1] = system: rats with intracerebral hemorrhage; assay: Conditioned response of passive avoidance (CRPA) in rats with intracerebral hemorrhage; type: in vivo; conditions: 21st day, n = 15
Protocol: (§1) Neuroprotective effect of 3,2′-spiro-pyrrolo-2-oxindole derivative (SI-86 compound) was studied on IUD model of moderate severity modeled under propofol anesthesia (60 mg/kg intraperitoneally (ip)) by autoblood administration into the brain internal capsule (stereotactic coordinates of the projection: H=7.0 mm, L=3.0 mm, A=1.5 mm from bregma) ([…]) (Method for reproduction of intracerebral hemorrhage in rats/O. K. Yarosh, S. V. Kyrychenko, S. P. Halimonchyk [et al.]//Circulation and hemostasis.-2005.-No. 1.-P. 77-81). The chosen model allows to reproduce clinical pattern of […] and is adequate for clinical study of potential neuroprotective agents.
(§2) As comparators the following drugs were used: mexydol (“Mexydol” UC Pharmasoft, Russia), 100 mg/kg; citicoline (“Somazina” Ferrer International, SA, Spain), 250 mg/kg; aktovegin (“Aktovegin”, Nycomed, Austria), 16 mg/kg pyracetam (“Pyracetam” Darnitsa, Ukraine), 400 mg/kg. According to the latest clinical guidelines regarding the treatment of patients with CVA approved by the Ministry of Health of Ukraine (Order No. 602 dated 3 Aug. 2012), all these drugs are allowed to be included into schemes for intensive patients therapy with CVA as neuroprotective agents. They were used at recommended doses for preclinical studies (McGrow C. P. Experimental Cerebral Infarction Effects of Pentobarbital in Mongolian Gerbils/C. P. McGrow//Arch. Neurol.-1977.-Vol. 34, No. 6.-P. 334-336). Experimental therapy of acute cerebral ischemia with SI-86 compound and comparator started 1 hour after IUD once a day for 21 days. The SI-86 derivative was investigated in conventionally effective dose of 10 mg/kg […] (iv)-dose that according to the results of our previous study provides maximum antihypoxic activity of SI-86 compound. Reference drugs were injected intraperitoneally (ip). Rats of control pathology group were injected by autoblood and as therapy 0.9% NaCI solution was administered calculated for 2 ml/kg […].
Evaluation of the ability of animals to learn and memorize of aversive stimulus was examined in the test of conditioned response of passive avoidance (CRPA). The technique is based on innate rat instinct to limited shadowy space. The study in rats was conducted in two-compartment unit consisted of two sections—light and dark. An animal was arranged into light compartment, fixing latency time for entering into the dark compartment, wherein rat received current irritation and ran in the light compartment. CRPA retention was tested every other day under latency time change of rat entering into the dark compartment. Also the number of animals was noted not fully entered the dark chamber. Cerebroprotective efficiency criteria of studied compounds were also animal death term (days) and their mortality rate (in %).

[2] = system: rats with intracerebral hemorrhage; assay: Neurological deficit (C. P. McGrow stroke-index scale) in rats with intracerebral hemorrhage; type: in vivo; conditions: n = 15
Protocol: as §1, §2
Neurological deficit in animals with acute CVA respectively in acute (4th day) and recovery (21 st day) periods was measured on C. P. McGrow stroke-index scale. The state severity was determined by amount of relevant points: to 3 points-mild, 3 to 7 points-average, above 7 points-severe degree. Pareses, paralyses of limbs, tremors, circus movement, ptoses, lateral positions, ability of rats to be maintained at the core of 15 cm diameter, rotating at the rate of 3 rpm were noted. The animals were tested daily by displaying the amount of points:
one-sided semi-ptosis—0.5 points; one-sided ptosis—1 point; tremor—0.5 points; circus movements—0.5 points; pareses of limbs (for each limb)—1 point; paralyses of limbs (for each limb)—2 points; lateral position—3 points; disability to maintain on rotating rod during 4 minutes—3 points.

[3] = system: 11β-corticosterone; assay: 11β-corticosterone level in venous blood of pseudo-operated rats (ELISA); type: in vivo, Wistar rats; conditions: pseudo-operated animals + SI-86 10 mg/kg iv
Protocol: (§3) Pseudo-operated rats were exposed to all interventions (anesthesia, skin incision, dissection of vessels) except arteries ligation that leveled traumatic impact of experimental conditions.
(§4) To determine a corticosterone level (species-specific cortisol analogue in rats, which is also a substrate for 11β-HSD1) in the corresponding period (4 th and 21 st CVA day) in rat by sagittal sinus puncture, blood was sampled (0.2-0.4 ml). The cortisol level was measured by ELISA using a CORTICOSTERONEE KIT set (Germany) on the instrument of the company “Hipson” (Czech Republic).
To establish the effect of course administration of SI-86 compound on steroid synthesis in animals without cerebral ischemia the dynamics of its level in pseudo-operated rats in the same period was additionally determined.

[4] = system: 11β-corticosterone; assay: 11β-corticosterone level in venous blood of rats with bilateral carotid occlusion (ELISA); type: in vivo, Wistar rats; conditions: for dynamics in percents in relation to control pathology group / dynamics in percents in relation to the group of pseudo-operated animals / 11β-corticosterone level in venous blood: BCO
Protocol: The neuroprotective effect of 3,2′-spiro-pyrrolo-2-oxindole derivative (SI-86 compound) was studied in Wistar rats on a model of cerebrovascular accident (CVA) of ischemic type in archencephalic pool forming bilateral carotid occlusion (BCO) by carotid artery ligation. The ligations for common carotid arteries was imposed under propofol anesthesia at a dose of 60 mg/kg intraperitoneally (ip), using surgical access to the front of the neck cutting through its white line. The chosen model allows to reproduce the clinical pattern of ischemic stroke and is adequate for clinical study of potential neuroprotective substances (Drug discovery and Evaluation: pharmacological assays/H. Gerhard Vogel (ed.).-2nd ed. 1453p.).
The derivative of 3,2′-spiro-pyrrolo-2-oxindole was investigated in conventionally effective dose of 10 mg/kg […] (iv)—dose which is provided maximum antihypoxic activity of SI-86 compound by the results of our previous study. The reference drugs were injected intraperitoneally (ip). BCO was applied to the rats of control pathology and 0.9% NaCI solution was administered as therapy calculated for 2 ml/kg ip.
as §3, §4

[5] = system: rats; assay: Acute toxicity in rats; type: in vivo; conditions: for Effect (died/total): 2 weeks observation
Protocol: (§5) The acute toxicity study was conducted when administered compounds SI-86 to rats into the stomach at doses of 3500 and 4000 mg/kg. Each dose was tested in 4 animals. The duration of observation of rats after administration of test compound was 2 weeks.

[6] = Acute toxicity in rats; type: in vivo; conditions: rat, in vivo, oral; rats
Protocol: as §5

CSCC[C@@H]1N[C@@]2(C(=O)Nc3ccccc32)[C@@H]2C(=O)N(c3ccc(C)cc3)C(=O)[C@H]12 [SI-86, 5′-(4-Methylphenyl)-3′-[2-(methylthio)ethyl]-3a′,6a′-dihydro-2′H-spiro[indole-3,1′-pyrrolo[3,4-c]pyrrol]-2,4′,6′(1H,3′H,5′H)-trione]
Latent period for entrance into dark compartment, prior study ([1]; SI-86 10 mg/kg iv, mexydol 100, citocoline 250, actovegin 16, pyracetam 400 mg/kg ip): 9.50 ± 0.34°*^#•$ s
Latent period for entrance into dark compartment, 24 hours after study ([1]; same doses): 127.10 ± 2.71°*^#•$ s
neurological deficit, average point under C. P. McGrow scale ([2]; day 4, SI-86 10 mg/kg iv, mexydol 100, citocoline 250, actovegin 16, pyracetam 400 mg/kg ip): 4.1 points and 4.10 ± 0.32°*^#•$ points
neurological deficit, average point under C. P. McGrow scale ([2]; day 21, same doses): 3.1 points and 3.10 ± 0.33°*^#&$ points
11β-corticosterone level in venous blood ([3]; day 4): 81.95 ± 0.61 ng/mL
dynamics in percents in relation to the group of pseudo-operated animals ([3]; day 4): (−31.9%)
11β-corticosterone level in venous blood ([3]; day 21): 83.02 ± 4.25 ng/mL
dynamics in percents in relation to the group of pseudo-operated animals ([3]; day 21): (−10.2%)
dynamics in percents in relation to control pathology group ([4]; day 4): [−60.2%]
dynamics in percents in relation to the group of pseudo-operated animals ([4]; day 4): (+54.8%)
11β-corticosterone level in venous blood ([4]; day 4, SI-86 10 mg/kg iv, citocoline 250 mg/kg ip): 186.12 ± 1.43°*^# ng/ml
dynamics in percents in relation to control pathology group ([4]; day 21): [−57.1%]
dynamics in percents in relation to the group of pseudo-operated animals ([4]; day 21): (+55.2%)
11β-corticosterone level in venous blood ([4]; day 21, same doses): 144.67 ± 3.43°*^#• ng/ml
ability to reduce corticosterone content, better than citocoline ([4]; CVA acute period): 1.46 times
corticosterone concentration in sagittal sinus blood decreased in relation to the control pathology group ([4]; after 96 hours): 60.2%
corticosterone concentration in sagittal sinus blood decreased in relation to the control pathology group ([4]; after 21 days): 57.1%
ability to reduce corticosterone content, better than citocoline ([4]; recovery period): 1.62 times
Effect (died/total) ([5]; 3500 mg/kg single administration): all animals survived and 0/4
rats died ([5]; 4000 mg/kg): 25%
Effect (died/total) ([5]; 4000 mg/kg single administration): 1/4
toxicity class according to Hodge and Sterner classification ([5]; rat, in vivo): IV class of toxicity
LD50 at 2 weeks [6]: 501 to 5000 mg/kg
